Key:
[1] = tested on: human retinal endothelial cells (HRECs); experiment: Inner blood retinal barrier: HREC monolayer permeability to FITC-dextran; format: cell-based; conditions: for p < 0.05 (HREC permeability versus diabetic milieu): IL-β, after 90 min
From the text: The mechanisms of actions involved in the anti-permeability effect of the tested treatments were explored by assessing permeability to fluorescent dextran and proinflammatory cytokines production using their mRNA expression levels by RT-PCR.
Inner Blood Retinal Barrier conditions: primary human retinal endothelial cells (HRECs) were obtained from a vial of cryopreserved cells purchased from Innoprot (Vizcay, Spain). These cells were isolated from human retinal tissue of cadaveric eyes digested with 0.1 mg/mL collagenase type I at 37° C. for 1 hour. Then, endothelial cells were finally selected with CD31 antibody-coated magnetic beads (DynaBeads; Dynal, Oslo, Norway). HRECs were thawed in the laboratory and cultured in endothelial basal medium (EBM) containing, 5.5 mM D-glucose, 5% FBS (Fetal Bovine Serum), 100 U/mL penicillin, 100 μg/mL streptomycin, and ECG (Endothelial Cell Growth Supplement) supplement (Innoprot, Vizcay, Spain). Human fibronectin (MerckMillipore, Madrid, Spain) at 5 μg/mL was used for cell attachment. Cells at passages 2-3 will be used for the experiments. For experimentation, HRECs were grown to confluence and then cell culture media was changed to medium supplemented with 1% FBS for 24 h and then exposed to different treatments.
Conditions treatments: The same conditions specified for the experiment in ARPE-19 cells were used.
Measurement of HREC permeability: Permeability in HREC monolayers were obtained on permeable supports at 12×10^5 cells/well (24 wells, PCF filters, Merk Millipore). Inserts were incubated for 48 hours at 37° C. in 5% CO2-air to form the monolayer. At the end, medium was serum depleted 24 h before to proceed with the treatments. The lower chamber was filled with 600 μL of complete EBM medium and the upper chamber with 100 μL of cell suspension in serum depleted (1%).
To detect changes in the permeability, 100 μg/ml of fluorescent FITC-DEXTRAN (Sigma, Madrid, Spain), was added to the upper side of the insert. Aliquots of 200 μL from the basal compartment was read in a SpectraMax Gemini (Molecular Devices, Sunnyvale, Calif.) at a wavelength of excitation/emission 485/528 nm every 30 min. Finally, the concentration of dextran was determined by extrapolation of the fluorescence reads in a standard curve. Each condition was tested in triplicate.

Pan02 tumor cells = experiment: Subcutaneous murine pancreatic cancer syngenic model (Pan02); format: in vivo, C57BL/6 mice; design: Mean % inhibition of tumor volume Pan02 model: concentration or dose not given beside the values
Procedure: The objective of this study was to evaluate preclinically the in vivo therapeutic efficacy study of compounds according to the present invention for the treatment of subcutaneously murine pancreatic cancer syngenic model (Pan02) in female C57BL/6 mice and kidney cancer syngenic model (Renca) in female BALB/c mice.
Cell Culture: the Pan02 tumor cells were maintained in vitro with RPMI 1640 medium supplemented with 10% fetal bovine serum at 37° C. in an atmosphere of 5% CO2 in air. The cells in exponential growth phase were harvested and quantitated by cell counter before tumor inoculation.
Tumor Inoculation for Pan02 model: each mouse was inoculated subcutaneously in the right front flank region with Pan02 tumor cells (3×10^6) in 0.1 mL of PBS for tumor development.
Randomization: The randomization was started when the mean tumor size reaches approximately 100 (80-110) mm^3. For both models, 48 mice were enrolled in the study. All animals were randomly allocated to 6 study groups. Randomization were performed based on “Matched distribution” method using the multi-task method (StudyDirector™ software, version 3.1.399.19). The date of randomization was denoted as day 0.
Observation and Data Collection: After tumor cells inoculation, the animals were checked daily for morbidity and mortality. During routine monitoring, the animals were checked for any effects of tumor growth and treatments on behavior such as mobility, food and water consumption, body weight gain/loss (body weights were measured twice per week after randomization), eye/hair matting and any other abnormalities. Mortality and observed clinical signs were recorded for individual animals in detail.
Tumor volumes were measured twice per week after randomization in two dimensions using a caliper, and the volume were expressed in mm3 using the formula: “V=(L×W×W)/2, where V is tumor volume, L is tumor length (the longest tumor dimension) and W is tumor width (the longest tumor dimension perpendicular to L). Tumor weight were measured at the end of study. Dosing as well as tumor and body weight measurements were conducted in a Laminar Flow Cabinet.
Statistical Analysis: To compare tumor volumes of different groups at a pre-specified day, Bartlett's test was firstly used to check the assumption of homogeneity of variance across all groups. When the p-value of Bartlett's test is >0.05, One-way ANOVA were used to test overall equality of means across all groups.
If the p-value of the One-way ANOVA is <0.05, post hoc testing by running Tukey's HSD (honest significant difference) tests for all pairwise comparisons, and Dunnett's tests for comparing each treatment group with the vehicle group were performed. When the p-value of Bartlett's test is <0.05, Kruskal-Wallis test were used to test overall equality of medians among all groups. If the p-value the Kruskal-Wallis test is <0.05, post hoc testing by running Conover's non-parametric test for all pairwise comparisons or for comparing each treatment group with the vehicle group were performed, both with single-step p-value adjustment. All statistical analyses were done in R-a language and environment for statistical computing and graphics (version 3.3.1). All tests are two-sided unless otherwise specified, and p-values of <0.05 are regarded as statistically significant.

[2] = No 3-5: 25 mM D-Gluc + compound 25 μg/mL
[3] = No 6-8: 25 mM D-Gluc + compound 50 μg/mL + VEGF, TNF-α, IL-β (so in the source)
[4] = No 11-13: 25 mM D-Gluc + compound 25 μg/mL + VEGF, TNF-α, IL-β (diabetic milieu)
[5] = No 11-13: compound 25 μg/mL + VEGF, TNF-α
[6] = No 14-16: 25 mM D-Gluc + compound 50 μg/mL + VEGF, TNF-α, IL-β (diabetic milieu)
[7] = day 13, 15 mg/kg, 5 μL/g, I.V., QD*5 for 2 weeks

Row | Compound | % permeability HREC [1, 2] | % permeability HREC [1, 3] | % permeability HREC [1, 4] | p < 0.05 (HREC permeability versus diabetic milieu) [1, 5] | % permeability HREC [1, 6] | p < 0.05 (HREC permeability versus diabetic milieu) ([1]; No 14-16: compound 50 μg/mL + VEGF, TNF-α) | Tumor growth (in words) (Pan02 tumor cells; 15 mg/kg I.V.) | TGI value (Pan02 tumor cells; 15 mg/kg I.V., P<0.05) | Mean % inhibition of tumor volume Pan02 model (Pan02 tumor cells; Day 0) | Mean % inhibition of tumor volume Pan02 model (Pan02 tumor cells; Day 3) | Mean % inhibition of tumor volume Pan02 model (Pan02 tumor cells; Day 6) | Mean % inhibition of tumor volume Pan02 model (Pan02 tumor cells; Day 9) | Mean % inhibition of tumor volume Pan02 model (Pan02 tumor cells; Day 13) | TGI (%) (Pan02 tumor cells; [7]) | Tumor volume ± SEM (mm^3) (Pan02 tumor cells; [7])
1 | O=C(O)c1cc(NC(=O)c2cc(O)cc(C(=O)Nc3ccc(O)c(C(=O)O)c3)c2O)ccc1O [IIc-007a, 5-(3-(3-carboxy-4-hydroxyphenylaminocarbonyl)-2,5-dihydroxybenzamido)-2-hydroxy benzoic acid] | 136.3 ± 16.7% | 147.7 ± 17.6% | 135.8 ± 16.6% | * (* p < 0.05 for FITC dextran leakage measured after 90 min in [ng/mL/cm^2] in comparison with diabetic milieu (25 mM D-Gluose + VEGF, TNF-α, IL-β)) | 145.2 ± 8.8% |  |  |  |  |  |  |  |  |  | 
2 | O=C(O)c1cc(O)cc(CS(=O)(=O)Cc2cc(O)cc(C(=O)O)c2O)c1O [IVc-059a, 3-((2,5-Dihydroxy-3-carboxyphenyl)methylsulfonylmethyl)-2,5-dihydroxybenzoic acid] | 109.9 ± 24.7% | 135.4 ± 6.7% | 124.0 ± 6.3% | * (* p < 0.05 for FITC dextran leakage measured after 90 min in [ng/mL/cm^2] in comparison with diabetic milieu (25 mM D-Gluose + VEGF, TNF-α, IL-β)) | 115.3 ± 14.7% | * (* p < 0.05 for FITC dextran leakage measured after 90 min in [ng/mL/cm^2] in comparison with diabetic milieu (25 mM D-Gluose + VEGF, TNF-α, IL-β)) | significantly suppressed tumor growth | 20.98% | −0.11% | 19.86% | 18.64% | 18.49% | 20.98% | 20.98% | 148.49 ± 7.05 (8) mm^3
3 | O=C(O)c1cc(NC(=O)c2cc(O)c(C(=O)Nc3ccc(O)c(C(=O)O)c3)cc2O)ccc1O [Ic-007a, 5-(4-(3-carboxy-4-hydroxyphenylaminocarbonyl)-2,5-dihydroxybenzamido)-2-hydroxy benzoic acid] | 126.3 ± 8.3% | 127.4 ± 2.1% | 111.6 ± 24.2% | * (* p < 0.05 for FITC dextran leakage measured after 90 min in [ng/mL/cm^2] in comparison with diabetic milieu (25 mM D-Gluose + VEGF, TNF-α, IL-β)) | 159.0 ± 23.9% |  |  |  |  |  |  |  |  |  | 

Source: patent US20230150951A1, “2,5- OR 2,6-DISUBSTITUTED HYDROQUINONE DERIVATIVES WITH AT LEAST ONE CARBOXY, SULFO OR AMIDO GROUP USEFUL AS MEDICAMENTS” (OM PHARMA SA, priority 2020, published 2023)
